Test results: US11945822B2, “Pyrazolo-triazine and/or pyrazolo-pxrimidine derivatives as selective inhibitor of cyclin dependent kinase” (QURIENT CO., LTD., priority 2018, dated 2024)
pIC50: −log10 of the molar value. Like-named read-outs stand apart in the source and are kept apart here.

Tests used:
[1] = target: T1, CDK1/Cyclin B (Homo sapiens, UniProt P06493); test: Enzymatic assay for CDK1 (FRET based LANCE Ultra kinase assay); assay type: biochemical
T1 construct: purchased Invitrogen PR4768C
Summary of the method: (§1)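 TR-FRET (LANCE Ultra) kinase assay at ATP Km, ULight-MBP peptide substrate (68 nM), 8-dose 4-fold compound series in DMSO. Enzymes: […]; 60 min at 23° C., stopped with EDTA plus Eu-anti-phospho-MBP antibody, read 665/615 nm after 60 min.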

[2] = target: T2, CDK2/Cyclin A (Homo sapiens, UniProt P24941); test: Enzymatic assay for CDK2 (FRET based LANCE Ultra kinase assay); assay type: biochemical
T2 construct: purchased Invitrogen PV6290
Summary of the method: as §1

[3] = target: T3, CDK5/p25 (Homo sapiens, UniProt Q00535); test: Enzymatic assay for CDK5 (FRET based LANCE Ultra kinase assay); assay type: biochemical
T3 construct: purchased Invitrogen PR8543B
Summary of the method: as §1

[4] = target: T4, CDK7/Cyclin H/MNAT1 (Homo sapiens, UniProt P50613); test: Enzymatic assay for CDK7 (FRET based LANCE Ultra kinase assay); assay type: biochemical
T4 construct: purchased Invitrogen PR6749B
Summary of the method: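 LANCE Ultra TR-FRET kinase assay using a ULight-labeled peptide substrate and a Eu-labeled anti-phospho antibody, with ATP at its Km. Purified CDK/cyclin complex was added to compound after brief centrifugation.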

[5] = test system: H460; test: Cellular H460 viability assay (CellTiter-Glo, 72 hours); assay type: cell-based; conditions: Homo sapiens, NCI-H460
Summary of the method: (§2)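 Steps: seed cells at per-line density; add compound, DMSO vehicle kept under 0.1% final; incubate 72 h, 37 °C, 5% CO2; lyse with CellTiter-Glo and read luminescence; run in duplicate.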

[6] = test system: MV4-11; test: Cellular MV4-11 viability assay (CellTiter-Glo, 72 hours); assay type: cell-based; conditions: Homo sapiens
Summary of the method: as §2

[7] = test system: RPMI-8226; test: Cellular RPMI-8226 viability assay (CellTiter-Glo, 72 hours); assay type: cell-based; conditions: Homo sapiens
Summary of the method: as §2

[8] = test system: A2780; test: Cellular A2780 viability assay (CellTiter-Glo, 72 hours); assay type: cell-based; conditions: Homo sapiens
Summary of the method: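 Cells seeded at 1×10^4/well (MM.1S), 5×10^3 (OVCAR-3) or 1×10^3 (A2780), grown in RPMI-1640 with 10% FBS. After 24 h, compound added at 0.0015–10 uM, final DMSO below 0.1%, for 72 h at 37° C. Viability read by CellTiter-Glo luminescence in duplicate, with curve fitting.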

[9] = test system: MOLT-4; test: Cellular MOLT-4 viability assay (CellTiter-Glo, 72 hours); assay type: cell-based; conditions: Homo sapiens, MOLT4 viability assay
Summary of the method: as §2

[10] = test system: MM.1S; test: Cellular MM.1S viability assay (CellTiter-Glo, 72 hours); assay type: cell-based; conditions: Homo sapiens, MM1.S
From the text: Human T-cell acute lymphoblastic leukemia cell line, MOLT-4 (ATCC, Cat #CRL-1582), Human multiple myeloma cell line, RPMI-8226 (Invitrogen, Cat #22400-089) and MM.1S (ATCC, Cat #CRL-2974), NSCLC (Non-small cell lung cancer) cell line H460 (ATCC, Cat #HTB-177), Human colon colorectal carcinoma cell line HCT116 (ATCC, Cat #CCL-247), Human acute monocytic leukemia cell line MV4-11 (ATCC, Cat #CRL-9591), OVCAR-3 (ATCC, Cat #HTB-161) and A2780 (ECACC, Cat #93112519) were obtained from ATCC. Cells were grown in RPMI-1640 media (Invitrogen, Cat #22400-089) supplemented with 10% FBS (Invitrogen, Cat #10099141) and 1% penicillin/streptomycin (Invitrogen, Cat #15070063) and cultured at 37° C., 5% CO2 in a humidified chamber. All cell lines were routinely tested for mycoplasma.
The effect of the CDK7 inhibitor to inhibit the growth of target cancer cells was evaluated through the 72 hours time period of viability assay. Briefly, the candidate cell line ware plated in 96 well plate at the following density of cells respectively. 1×10^4 cells/well for MOLT-4, RPMI-8226, MV4-11 and MM.1S, 5×10^3 for H460, HCT116 and OVCAR-3 and IX 10^3 for A2780. After 24 hours, the cells were treated with various concentrations of the compound (ranging from 0.0015 uM to 10 uM). DMSO solvent without compound served as a control and final DMSO concentration less than 0.1%. After 72 hours of incubation at 37° C., 5% CO2 incubator, cells were analyzed for the viability using the CellTiter-Glo Luminescent Cell Viability Assay (Promega, Cat #G7570). All viability assays were performed in duplicate and Luminescence was read using an Envision (Perkin Elmer, USA). Data was analyzed using XLfit software.

[11] = test system: HCT116; test: Cellular HCT116 viability assay (CellTiter-Glo, 72 hours); assay type: cell-based; conditions: Homo sapiens, HCT-116
Summary of the method: as §2

[12] = read-out: CDK1 enzymatic activity (IC50 range)
[13] = read-out: CDK2 enzymatic activity (IC50 range)
[14] = read-out: CDK5 enzymatic activity (IC50 range)
[15] = read-out: CDK7 enzymatic activity (IC50 range)

T1 sequence (P06493 whole entry): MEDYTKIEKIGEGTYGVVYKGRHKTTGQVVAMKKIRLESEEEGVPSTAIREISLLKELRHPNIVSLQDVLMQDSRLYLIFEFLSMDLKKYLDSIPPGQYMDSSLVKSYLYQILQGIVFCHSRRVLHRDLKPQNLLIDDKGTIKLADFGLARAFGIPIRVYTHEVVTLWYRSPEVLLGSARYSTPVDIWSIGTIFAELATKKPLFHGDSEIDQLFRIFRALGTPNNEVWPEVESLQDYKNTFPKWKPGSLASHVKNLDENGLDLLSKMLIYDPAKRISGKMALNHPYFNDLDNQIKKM
T1 sequence (P14635 whole entry partner): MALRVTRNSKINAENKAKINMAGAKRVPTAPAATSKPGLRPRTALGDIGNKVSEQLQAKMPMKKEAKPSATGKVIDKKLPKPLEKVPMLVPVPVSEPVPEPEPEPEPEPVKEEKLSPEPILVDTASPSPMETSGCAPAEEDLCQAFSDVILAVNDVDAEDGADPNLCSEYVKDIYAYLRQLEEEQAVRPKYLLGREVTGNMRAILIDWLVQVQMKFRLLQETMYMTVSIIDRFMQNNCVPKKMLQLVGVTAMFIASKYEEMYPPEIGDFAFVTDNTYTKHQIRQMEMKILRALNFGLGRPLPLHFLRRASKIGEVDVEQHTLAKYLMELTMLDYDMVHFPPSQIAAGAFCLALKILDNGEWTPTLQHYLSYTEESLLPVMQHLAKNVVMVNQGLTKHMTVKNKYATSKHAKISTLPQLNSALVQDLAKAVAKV
T3 sequence (Q00535 whole entry): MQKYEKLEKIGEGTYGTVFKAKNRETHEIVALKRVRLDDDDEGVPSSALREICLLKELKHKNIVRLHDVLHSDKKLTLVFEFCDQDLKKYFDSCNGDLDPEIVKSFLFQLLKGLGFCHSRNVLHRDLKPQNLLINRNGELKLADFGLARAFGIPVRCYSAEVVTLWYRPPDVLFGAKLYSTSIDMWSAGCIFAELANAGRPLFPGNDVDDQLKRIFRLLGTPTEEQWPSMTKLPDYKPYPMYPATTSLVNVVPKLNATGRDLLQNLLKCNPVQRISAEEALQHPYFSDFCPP
T3 sequence (Q15078 99-307 partner limits assumed): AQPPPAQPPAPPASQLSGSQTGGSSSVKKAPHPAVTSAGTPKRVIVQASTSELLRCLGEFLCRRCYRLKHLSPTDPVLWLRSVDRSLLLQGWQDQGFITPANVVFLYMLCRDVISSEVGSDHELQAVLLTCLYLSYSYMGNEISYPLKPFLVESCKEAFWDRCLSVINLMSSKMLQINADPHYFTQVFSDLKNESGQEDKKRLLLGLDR
T4 sequence (P50613 whole entry): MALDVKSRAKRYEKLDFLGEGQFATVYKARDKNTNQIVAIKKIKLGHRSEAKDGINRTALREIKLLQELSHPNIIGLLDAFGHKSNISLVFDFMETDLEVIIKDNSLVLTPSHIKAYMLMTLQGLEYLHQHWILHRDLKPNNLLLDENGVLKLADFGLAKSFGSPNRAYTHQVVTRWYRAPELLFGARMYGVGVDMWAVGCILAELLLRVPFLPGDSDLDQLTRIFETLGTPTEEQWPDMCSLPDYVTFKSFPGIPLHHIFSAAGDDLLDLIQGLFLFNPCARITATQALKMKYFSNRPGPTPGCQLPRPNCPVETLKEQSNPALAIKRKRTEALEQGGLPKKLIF
T4 sequence (P51946 whole entry partner): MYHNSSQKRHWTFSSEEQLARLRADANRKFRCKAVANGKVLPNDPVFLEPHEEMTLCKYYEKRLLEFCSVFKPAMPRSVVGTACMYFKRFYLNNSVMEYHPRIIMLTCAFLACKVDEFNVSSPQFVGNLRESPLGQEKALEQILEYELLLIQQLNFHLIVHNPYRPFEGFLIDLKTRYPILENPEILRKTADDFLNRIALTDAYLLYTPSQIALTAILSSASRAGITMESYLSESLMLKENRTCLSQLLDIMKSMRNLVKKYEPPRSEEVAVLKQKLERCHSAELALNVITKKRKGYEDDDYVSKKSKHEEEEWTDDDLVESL
T4 sequence (P51948 whole entry partner): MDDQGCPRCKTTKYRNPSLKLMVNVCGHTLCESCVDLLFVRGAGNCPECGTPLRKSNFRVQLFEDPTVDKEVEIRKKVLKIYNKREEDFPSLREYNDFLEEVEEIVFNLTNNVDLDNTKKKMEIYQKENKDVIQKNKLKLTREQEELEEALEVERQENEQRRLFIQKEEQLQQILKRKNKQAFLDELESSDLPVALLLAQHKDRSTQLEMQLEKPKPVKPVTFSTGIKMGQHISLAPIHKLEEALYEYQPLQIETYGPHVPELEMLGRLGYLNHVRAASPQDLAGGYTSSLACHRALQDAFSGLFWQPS

| Compound | pIC50 [1, 12] | pIC50 [2, 13] | pIC50 [3, 14] | CDK1/CDK7: Selectivity of CDK7 inhibition over CDK1 inhibition ([4]; CDK7 over CDK1) | pIC50 [4, 15] | pIC50 [5] | pIC50 [6] | pIC50 [8] | pIC50 [10] | CDK2/CDK7: Selectivity of CDK7 inhibition over CDK2 inhibition ([4]; CDK7 over CDK2) | CDK5/CDK7: Selectivity of CDK7 inhibition over CDK5 inhibition ([4]; CDK7 over CDK5) | other results |
| --- | --- | --- | --- | --- | --- | --- | --- | --- | --- | --- | --- | --- |
| CC(C)c1cnn2c(NCc3ccccc3-c3cc4ccccc4[nH]3)nc(N3CCOC(CN)C3)nc12 (racemic) [Compound 130] | < 6.00 | 6.00 to 7.00 | 6.00 to 7.00 | A (A=greater than 200 fold) | > 7.00 | > 6.00 | > 6.00 | ≥ 6.00 | – | B (B=less than 200 fold, but greater than 20 fold) | B (B=less than 200 fold, but greater than 20 fold) | pIC50 [7]: > 6.00 |
| CC(C)c1cnn2c(NCc3ccccc3-c3cc4ccccc4[nH]3)nc(NCC3CNCCO3)nc12 (racemic) [Compound 274] | – | – | – | – | – | > 6.00 | > 6.00 | ≥ 6.00 | – | – | – | pIC50 ([1]; read-out: CDK1 enzymatic activity (IC50 activity range)): < 6.00; pIC50 ([2]; read-out: CDK2 enzymatic activity (IC50 activity range)): < 6.00; pIC50 ([3]; read-out: CDK5 enzymatic activity (IC50 activity range)): 6.00 to 7.00; CDK1/CDK7: Selectivity of CDK7 inhibition over CDK1 inhibition ([4]; CDK1/CDK7): A (A=greater than 200 fold); CDK2/CDK7: Selectivity of CDK7 inhibition over CDK2 inhibition ([4]; CDK2/CDK7): B (B=less than 200 fold, but greater than 20 fold); CDK5/CDK7: Selectivity of CDK7 inhibition over CDK5 inhibition ([4]; CDK5/CDK7): B (B=less than 200 fold, but greater than 20 fold); pIC50 ([4]; read-out: CDK7 enzymatic activity (IC50 activity range)): > 7.00; pIC50 [7]: 5.00 to 6.00 |
| CC(C)c1cnn2c(NCc3ccccc3-n3cccn3)nc(N3CCNCC3)nc12 [Compound 2] | < 6.00 | 6.00 to 7.00 | 6.00 to 7.00 | A (A=greater than 200 fold) | 6.00 to 7.00 | > 6.00 | > 6.00 | ≥ 6.00 | – | B (B=less than 200 fold, but greater than 20 fold) | B (B=less than 200 fold, but greater than 20 fold) | pIC50 [9]: 5.00 to 6.00 |
| CC(C)c1cnn2c(NCc3ccccc3-n3cccn3)nc(N3CCC(O)CC3)nc12 [Compound 4] | < 6.00 | 6.00 to 7.00 | 6.00 to 7.00 | B (B=less than 200 fold, but greater than 20 fold) | > 7.00 | 5.00 to 6.00 | – | 5.00 to 6.00 | – | B (B=less than 200 fold, but greater than 20 fold) | B (B=less than 200 fold, but greater than 20 fold) | pIC50 [9]: < 5.00 |
| CC(C)c1cnn2c(NCc3ccccc3-c3cc4ccccc4[nH]3)nc(N3CCC(N)(CO)CC3)nc12 [Compound 129] | < 6.00 | 6.00 to 7.00 | 6.00 to 7.00 | A (A=greater than 200 fold) | > 7.00 | > 6.00 | > 6.00 | ≥ 6.00 | – | A (A=greater than 200 fold) | B (B=less than 200 fold, but greater than 20 fold) | pIC50 [7]: > 6.00 |
| CC(C)c1cnn2c(NCc3ccccc3-n3cc4cc(C(=O)NC5COC5)ccc4n3)nc(N3CCC(N)CC3)nc12 [Compound 176] | 6.00 to 7.00 | 6.00 to 7.00 | 6.00 to 7.00 | B (B=less than 200 fold, but greater than 20 fold) | > 7.00 | > 6.00 | > 6.00 | – | ≥ 6.00 | B (B=less than 200 fold, but greater than 20 fold) | B (B=less than 200 fold, but greater than 20 fold) | – |
| CC(C)c1cnn2c(NCc3ccccc3-n3ccc(C(C)(C)O)n3)nc(NC[C@H]3CCNC[C@@H]3O)nc12 [Compound 233] | < 6.00 | 6.00 to 7.00 | < 6.00 | A (A=greater than 200 fold) | > 7.00 | > 6.00 | > 6.00 | ≥ 6.00 | – | B (B=less than 200 fold, but greater than 20 fold) | A (A=greater than 200 fold) | pIC50 [11]: > 6.00 |
| CC(C)c1cnn2c(NCc3c(Cl)cccc3-n3ccc(C(C)(C)O)n3)nc(N3CCC(O)(CN)CC3)nc12 [Compound 238] | < 6.00 | < 6.00 | < 6.00 | A (A=greater than 200 fold) | > 7.00 | > 6.00 | > 6.00 | ≥ 6.00 | – | A (A=greater than 200 fold) | A (A=greater than 200 fold) | pIC50 [11]: > 6.00 |

Further lines, with some results ahead:

| pIC50 [1, 12] | pIC50 [2, 13] | pIC50 [3, 14] | CDK1/CDK7: Selectivity of CDK7 inhibition over CDK1 inhibition ([4]; CDK7 over CDK1) | pIC50 [4, 15] | pIC50 [5] | pIC50 [6] | pIC50 [8] | pIC50 [10] | Compound | CDK2/CDK7: Selectivity of CDK7 inhibition over CDK2 inhibition ([4]; CDK7 over CDK2) | CDK5/CDK7: Selectivity of CDK7 inhibition over CDK5 inhibition ([4]; CDK7 over CDK5) | other results |
| --- | --- | --- | --- | --- | --- | --- | --- | --- | --- | --- | --- | --- |
| < 6.00 | < 6.00 | 6.00 to 7.00 | A (A=greater than 200 fold) | > 7.00 | > 6.00 | – | – | ≥ 6.00 | CC(C)(C)c1cnn2c(NCc3c(F)cccc3-n3cccn3)nc(N3CCC(N)CC3)nc12 [Compound 13] | B (B=less than 200 fold, but greater than 20 fold) | B (B=less than 200 fold, but greater than 20 fold) | – |
| < 6.00 | < 6.00 | < 6.00 | A (A=greater than 200 fold) | > 7.00 | > 6.00 | > 6.00 | – | 5.00 to 6.00 | CNC(=O)c1cccc(F)c1CNc1nc(N2CCC(N)CC2)nc2c(C(C)(C)C)cnn12 [Compound 20] | A (A=greater than 200 fold) | A (A=greater than 200 fold) | – |
| < 6.00 | 6.00 to 7.00 | > 7.00 | A (A=greater than 200 fold) | > 7.00 | > 6.00 | > 6.00 | – | ≥ 6.00 | Cc1[nH]c(-c2ccccc2CNc2nc(N3CCC(N)CC3)nc3c(C(C)C)cnn23)nc1C(=O)NC1CCOCC1 [Compound 178] | B (B=less than 200 fold, but greater than 20 fold) | C (C=less than 20 fold) | – |
| < 6.00 | < 6.00 | < 6.00 | A (A=greater than 200 fold) | > 7.00 | > 6.00 | > 6.00 | ≥ 6.00 | – | CC(C)c1cnn2c(NCc3c(Cl)cccc3-c3cccc(C(C)(C)O)n3)nc(N3CCC(N)CC3)nc12 [Compound 241] | A (A=greater than 200 fold) | B (B=less than 200 fold, but greater than 20 fold) | pIC50 [11]: > 6.00 |
